Results on six compounds are retold here after patent publication US10766928B2, “Targeted conformationally-constrained kinked endosomal disrupting peptides” (priority 2012, dated 2020).

In general, solubility refers to the concentration that dissolves in the medium under given conditions.

In series [1] the test system is endosomes of Jurkat lymphocytes. The series is described as follows: Endosome disruption in Jurkat lymphocytes: release of carboxyfluorescein from disulfide probe Compound 2, flow cytometry. The note with it: for Efficacy (% of 1): % of the effect of compound 1, calculated span of dose-response curve, ± standard deviation. Summed up: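 Human Jurkat cells treated with compounds plus disulfide probe Compound 2 (2.5 μM) for 14 h at 37 °C. Cytoplasmic release of pH-sensitive fluorophore Compound 3 quantified by flow cytometry. IC50 by non-linear regression; efficacy as % fluorescence change relative to Compound 1 maximum (100%).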

Series [2] can be described thus: Thermodynamic solubility in PBS (pH 7.4). Format: physicochemical. Conditions: for solubility at 24 h / solubility thermodynamic at 24 h: phosphate buffered saline; for solubility at 24 h: Table 1. The text has this:
Values in parentheses represent 95% confidence intervals. N.D., not determined.
Measurements represent duplicate or more replicates, with active peptides subjected to multiple replicates. ND: not determined. The peptide was non-toxic and soluble in cell culture medium at this concentration.

[3] abbreviates: PBS pH 7.4, 24 hours at 22° C., ±S.D., read-out: Solubility (aq.).
Setting [4] is: read-out: Potency, Table 2, EC50 ± standard deviation, Jurkat lymphocytes, disulfide-linked fluorescent probe (2.5 μM), 14 h.
Setting [5] is: pH 7.4, Table 3, PBS pH 7.4, 24 h at 22° C., read-out: Solubility.
[6] abbreviates: read-out: Toxicity, Table 3, IC50, Jurkat, 48 h at 37° C., footnote a: non-toxic and soluble in cell culture medium at this concentration.

SMILES strings stand for the structures. In brackets after ≈: the same amount, converted by molar mass. Read-outs that look alike come from different tables or passages of the source. Non-standard residues stand in square brackets, D forms with d. Residues, ends and D or L forms follow the SMILES beside them. *: point of attachment. Pentanoyl(5-NH-cholesteryl) = CC(C)CCC[C@@H](C)[C@H]1CC[C@H]2[C@@H]3CC=C4C[C@@H](NCCCCC(=O)*)CC[C@]4(C)[C@H]3CC[C@]12C; Cholesteryloxycarbonyl = CC(C)CCC[C@@H](C)[C@H]1CC[C@H]2[C@@H]3CC=C4C[C@@H](OC(=O)*)CC[C@]4(C)[C@H]3CC[C@]12C; PEG3 = NCCOCCOCCOCCC(=O)O; Pra = C#CC[C@H](N)C(=O)O; Aib = CC(C)(N)C(=O)O; βAla = NCCC(=O)O

`CC(C)CCC[C@@H](C)[C@H]1CC[C@H]2[C@@H]3CC=C4C[C@@H](NCCCCC(=O)NCCC(=O)N[C@@H](CCC(=O)O)C(=O)N[C@@H](CCC(=O)O)C(=O)NCCOCCOCCOCCC(=O)NCCOCCOCCOCCC(=O)NC(C)(C)C(=O)NC(C)(C)C(=O)NC(C)(C)C(=O)NC(C)(C)C(=O)N[C@@H](Cc5c[nH]c6ccccc56)C(=O)N[C@@H](Cc5c[nH]c6ccccc56)C(=O)N[C@@H](C)C(=O)N[C@@H](Cc5ccc(O)cc5)C(=O)N[C@@H](Cc5c[nH]c6ccccc56)C(=O)N5CCC[C@H]5C(=O)N5CCC[C@H]5C(=O)N[C@H](C(=O)N[C@@H](C)C(N)=O)C(C)C)CC[C@]4(C)[C@H]3CC[C@]12C` [Compound 26, R = BEEOOUUUUWWAYWPPVA-CONH2] ({Pentanoyl(5-NH-cholesteryl)-βAla}-EE[PEG3][PEG3][Aib][Aib][Aib][Aib]WWAYWPPVA-NH2): in series [1] (14 h), the EC50 turned out to be 100 nM. Further, the solubility at 24 h in series [2] (setting [3]) amounted to 14 µM (≈ 38.1 µg/mL). Besides, in the series on Jurkat lymphocytes (48 h), the IC50 was determined as 8000 nM.

Turning to `CC(C)[C@H](NC(=O)[C@@H](NC(=O)[C@@H]1CCCN1C(=O)[C@@H]1CCCN1C(=O)[C@H](Cc1ccc(O)cc1)NC(=O)[C@H](Cc1c[nH]c2ccccc12)NC(=O)[C@H](C)NC(=O)[C@H](Cc1ccc(O)cc1)NC(=O)[C@H](Cc1c[nH]c2ccccc12)NC(=O)[C@H](C)NC(=O)[C@H](Cc1ccc(O)cc1)NC(=O)[C@H](Cc1c[nH]c2ccccc12)NC(=O)C(C)(C)NC(=O)C(C)(C)NC(=O)C(C)(C)NC(=O)C(C)(C)N)C(C)C)C(N)=O` [Compound 80] (H-[Aib][Aib][Aib][Aib]WYAWYAWYPPVV-NH2), in series [1] (Table 2, Jurkat, 14 h), the “Efficacy (% of 1)” value is 113 ± 4%. Also, in series [1] (setting [4]), the EC50 is 280 ± 100 nM. Also, the solubility thermodynamic at 24 h in series [2] (setting [5]) was 5 ± 2 µM (≈ 9.7 µg/mL). Moreover, the IC50 with Jurkat lymphocytes (setting [6]) was more than 16000 nM.

On to `CC(C)[C@H](NC(=O)[C@@H](NC(=O)[C@@H]1CCCN1C(=O)[C@@H]1CCCN1C(=O)[C@H](Cc1c[nH]c2ccccc12)NC(=O)[C@H](Cc1c[nH]c2ccccc12)NC(=O)[C@H](C)NC(=O)[C@H](Cc1c[nH]c2ccccc12)NC(=O)[C@H](Cc1ccc(O)cc1)NC(=O)C(C)(C)NC(=O)C(C)(C)NC(=O)C(C)(C)NC(=O)C(C)(C)N)C(C)C)C(N)=O` [Compound 52] (H-[Aib][Aib][Aib][Aib]YWAWWPPVV-NH2), for which the “Efficacy (% of max. 1)” value in series [1] (Table 1, % change in cellular fluorescence relative to maximal response of Compound 1 (100%), Jurkat, 14 hours) is reported as 87%. In addition, the “Efficacy (% of 1)” value in series [1] (Table 2, Jurkat, 14 h) is given as 105 ± 19%. In addition, the EC50 was 1900 nM in series [1] (read-out: Potency (EC50), Table 1, Jurkat lymphocytes, probe Compound 2 (2.5 μM), 14 hours, 95% confidence interval in neighbouring cell) and 3200 ± 1400 nM in series [1] (setting [4]). For the same compound, the solubility thermodynamic at 24 h in series [2] (setting [5]) was 21 ± 1 µM (≈ 32.4 µg/mL). In the series with Jurkat lymphocytes (setting [6]), the IC50 was more than 16000 nM.

Consider `C#CC[C@H](NC(=O)[C@H](CCC(=O)O)NC(=O)[C@H](CCC(=O)O)NC(=O)CCNC(=O)CCNC(=O)O[C@H]1CC[C@@]2(C)C(=CC[C@H]3[C@@H]4CC[C@H]([C@H](C)CCCC(C)C)[C@@]4(C)CC[C@@H]32)C1)C(=O)NCCOCCOCCOCCC(=O)NCCOCCOCCOCCC(=O)NC(C)(C)C(=O)NC(C)(C)C(=O)NC(C)(C)C(=O)NC(C)(C)C(=O)N[C@@H](Cc1c[nH]c2ccccc12)C(=O)N[C@@H](Cc1c[nH]c2ccccc12)C(=O)N[C@@H](C)C(=O)N[C@@H](Cc1ccc(O)cc1)C(=O)N[C@@H](Cc1c[nH]c2ccccc12)C(=O)N1CCC[C@H]1C(=O)N1CCC[C@H]1C(=O)N[C@H](C(=O)N[C@@H](C)C(N)=O)C(C)C` [Compound 35, R″ = BEEZOOUUUUWWAYWPPVA-CONH2] ({Cholesteryloxycarbonyl-βAla-βAla}-EE[Pra][PEG3][PEG3][Aib][Aib][Aib][Aib]WWAYWPPVA-NH2), for which the EC50 in series [1] (14 h) worked out at 110 nM. Further, the “Difference in solubility relative to Compound 31” value in series [2] (PBS) was “greater than hundredfold”. Besides, in series [2] (pH 7.4, Table 1, PBS pH 7.4, 24 hours at 22° C., ±S.D., read-out: Solubility (aq.)), the solubility thermodynamic at 24 h was 649 ± 11 µM (≈ 1840 µg/mL). Moreover, the IC50 with Jurkat lymphocytes (48 h) stood at 13000 nM.

Turning to `CC(=O)NC(C)(C)C(=O)NC(C)(C)C(=O)NC(C)(C)C(=O)NC(C)(C)C(=O)N[C@@H](Cc1c[nH]c2ccccc12)C(=O)N[C@@H](Cc1ccc(O)cc1)C(=O)N[C@@H](C)C(=O)N[C@@H](Cc1c[nH]c2ccccc12)C(=O)N[C@@H](Cc1ccc(O)cc1)C(=O)N[C@@H](C)C(=O)N[C@@H](Cc1c[nH]c2ccccc12)C(=O)N[C@@H](Cc1ccc(O)cc1)C(=O)N1CCC[C@H]1C(=O)N1CCC[C@H]1C(=O)N[C@H](C(=O)N[C@H](C(N)=O)C(C)C)C(C)C` [Compound 82] (Ac-[Aib][Aib][Aib][Aib]WYAWYAWYPPVV-NH2), the “Efficacy (% of 1)” value in series [1] (Table 2, Jurkat, 14 h) was 85 ± 7%. Further, the EC50 in series [1] (setting [4]) came to 800 ± 200 nM. For the same compound, the solubility thermodynamic at 24 h in series [2] (setting [5]) was found to be 2 ± 1 µM (≈ 3.96 µg/mL). Moreover, the IC50 in the series on Jurkat lymphocytes (setting [6]) is more than 16000 nM.

In the case of `C#CC[C@H](NC(=O)CCNC(=O)CCNC(=O)O[C@H]1CC[C@@]2(C)C(=CC[C@H]3[C@@H]4CC[C@H]([C@H](C)CCCC(C)C)[C@@]4(C)CC[C@@H]32)C1)C(=O)NCCOCCOCCOCCC(=O)NCCOCCOCCOCCC(=O)NC(C)(C)C(=O)NC(C)(C)C(=O)NC(C)(C)C(=O)NC(C)(C)C(=O)N[C@@H](Cc1c[nH]c2ccccc12)C(=O)N[C@@H](Cc1c[nH]c2ccccc12)C(=O)N[C@@H](C)C(=O)N[C@@H](Cc1ccc(O)cc1)C(=O)N[C@@H](Cc1c[nH]c2ccccc12)C(=O)N1CCC[C@H]1C(=O)N1CCC[C@H]1C(=O)N[C@H](C(=O)N[C@@H](C)C(N)=O)C(C)C` [Compound 33, R″ = BZOOUUUUWWAYWPPVA-CONH2] ({Cholesteryloxycarbonyl-βAla-βAla}-[Pra][PEG3][PEG3][Aib][Aib][Aib][Aib]WWAYWPPVA-NH2), in series [1] (14 h), the EC50 came to 130 nM. For the same compound, in series [2] (setting [3]), the solubility at 24 h worked out at 2 µM (≈ 5.14 µg/mL). The IC50 in the series on Jurkat lymphocytes (48 h) was more than 100000 nM.
